Assay results from BigSolDB 2.1.

NC(N)=NCCC[C@H](NC(=O)OCc1ccccc1)C(=O)O
solubility (mole fraction)
Settings | 283.15 K | 288.15 K | 293.15 K | 298.15 K | 303.15 K | 313.15 K | 323.15 K
in 2-butanone | 9.88e-05 | – | 0.000118 | – | 0.000136 | 0.000164 | 0.000196
in DMF | 0.00164 | – | 0.00346 | – | 0.00597 | 0.00993 | 0.0183
in acetone | 2.5e-05 | – | 4.7e-05 | – | 5.73e-05 | 6.89e-05 | 9.91e-05
in acetonitrile | 1.5e-05 | – | 2.71e-05 | – | 3.52e-05 | 4.03e-05 | 4.82e-05
in dichloromethane | 8.03e-05 | 0.000103 | 0.000144 | 0.000183 | 0.000233 | – | –
in ethanol | 0.000193 | – | 0.000255 | – | 0.000379 | 0.000558 | 0.000898
in ethyl acetate | 4.73e-05 | – | 6.24e-05 | – | 7.31e-05 | 8.72e-05 | 9.78e-05
in isopropanol | 7.15e-05 | – | 0.000127 | – | 0.000163 | 0.000223 | 0.000275
in methanol | 0.000468 | – | 0.000602 | – | 0.00107 | 0.00137 | 0.00207
in n-butanol | 6.05e-05 | – | 0.000103 | – | 0.000141 | 0.000178 | 0.000239
in n-hexane | 4.3e-05 | – | 5.7e-05 | – | 7.42e-05 | 8.12e-05 | 0.000119
in water | 0.000198 | – | 0.000307 | – | 0.000417 | 0.000663 | 0.00104
